SMILES strings stand for the structures.

Data set [1] in a line: The drug is tested on WLS-006 corresponding to human gut metagenome with ENA study accession number: PRJEB37062 and ENA sample accession number: ERS12561741 for biotransformation under anaerobic condition. The drug concentrations were measured over 9 timepoints collected between 0 and 24 hours of incubation by liquid-chromatography-coupled mass spectrometry (LC–MS). As to conditions: 2 µM.

Data set [2] is described as follows: The drug is tested on Z-022 corresponding to mouse gut metagenome with ENA study accession number: PRJEB37062 and ENA sample accession number: ERS12561821 for biotransformation under anaerobic condition. The drug concentrations were measured over 9 timepoints collected between 0 and 24 hours of incubation by liquid-chromatography-coupled mass spectrometry (LC–MS). The following applies: 2 µM.

Data set [3] is described as follows: The drug is tested on Z-028 corresponding to mouse gut metagenome with ENA study accession number: PRJEB37062 and ENA sample accession number: ERS12561827 for biotransformation under anaerobic condition. The drug concentrations were measured over 9 timepoints collected between 0 and 24 hours of incubation by liquid-chromatography-coupled mass spectrometry (LC–MS). As to conditions: 2 µM.

Data set [4] can be described thus: The drug is tested on Z-018 corresponding to pig gut metagenome with ENA study accession number: PRJEB37062 and ENA sample accession number: ERS12561817 for biotransformation under anaerobic condition. The drug concentrations were measured over 9 timepoints collected between 0 and 24 hours of incubation by liquid-chromatography-coupled mass spectrometry (LC–MS). As to conditions: 2 µM.

The nature of data set [5]: The drug is tested on Z-029 corresponding to rat gut metagenome with ENA study accession number: PRJEB37062 and ENA sample accession number: ERS12561828 for biotransformation under anaerobic condition. The drug concentrations were measured over 9 timepoints collected between 0 and 24 hours of incubation by liquid-chromatography-coupled mass spectrometry (LC–MS). The following applies: 2 µM.

Data set [6] is described as follows: The drug is tested on WLS-069 corresponding to human gut metagenome with ENA study accession number: PRJEB37062 and ENA sample accession number: ERS12561748 for biotransformation under anaerobic condition. The drug concentrations were measured over 9 timepoints collected between 0 and 24 hours of incubation by liquid-chromatography-coupled mass spectrometry (LC–MS). As to conditions: 2 µM.

For data set [7] the following is noted: human gut metagenome, 24 h, 2 µM.
Data set [8] in a line: The drug is tested on WLS-098 corresponding to human gut metagenome with ENA study accession number: PRJEB37062 and ENA sample accession number: ERS12561754 for biotransformation under anaerobic condition. The drug concentrations were measured over 9 timepoints collected between 0 and 24 hours of incubation by liquid-chromatography-coupled mass spectrometry (LC–MS). As to conditions: 2 µM.

Data set [9] in a line: The drug is tested on WLS-073 corresponding to human gut metagenome with ENA study accession number: PRJEB37062 and ENA sample accession number: ERS12561749 for biotransformation under anaerobic condition. The drug concentrations were measured over 9 timepoints collected between 0 and 24 hours of incubation by liquid-chromatography-coupled mass spectrometry (LC–MS). As to conditions: 2 µM.

For data set [10] the following is noted: human gut metagenome, 24 h, 2 µM. This is another data set of the same source.
Data set [11] in a line: The drug is tested on WLS-310 corresponding to human gut metagenome with ENA study accession number: PRJEB37062 and ENA sample accession number: ERS12561785 for biotransformation under anaerobic condition. The drug concentrations were measured over 9 timepoints collected between 0 and 24 hours of incubation by liquid-chromatography-coupled mass spectrometry (LC–MS). The following applies: 2 µM.

The conditions of data set [12]: human gut metagenome, 24 h, 2 µM. The source holds these as a separate data set.
Data set [13] is described as follows: The drug is tested on Z-008 corresponding to metagenome with ENA study accession number: PRJEB37062 and ENA sample accession number: ERS12561808 for biotransformation under anaerobic condition. The drug concentrations were measured over 9 timepoints collected between 0 and 24 hours of incubation by liquid-chromatography-coupled mass spectrometry (LC–MS). The following applies: 2 µM.

The conditions of data set [14]: human gut metagenome, 24 h, 2 µM. This is another data set of the same source.
The conditions of data set [15]: human gut metagenome, 24 h, 2 µM. This is another data set of the same source.
The nature of data set [16]: The drug is tested on WLS-039 corresponding to human gut metagenome with ENA study accession number: PRJEB37062 and ENA sample accession number: ERS12561746 for biotransformation under anaerobic condition. The drug concentrations were measured over 9 timepoints collected between 0 and 24 hours of incubation by liquid-chromatography-coupled mass spectrometry (LC–MS). As to conditions: 2 µM.

Data set [17] is described as follows: The drug is tested on WLS-038 corresponding to human gut metagenome with ENA study accession number: PRJEB37062 and ENA sample accession number: ERS12561745 for biotransformation under anaerobic condition. The drug concentrations were measured over 9 timepoints collected between 0 and 24 hours of incubation by liquid-chromatography-coupled mass spectrometry (LC–MS). As to conditions: 2 µM.

Data set [18] in a line: The drug is tested on Z-019 corresponding to rat gut metagenome with ENA study accession number: PRJEB37062 and ENA sample accession number: ERS12561818 for biotransformation under anaerobic condition. The drug concentrations were measured over 9 timepoints collected between 0 and 24 hours of incubation by liquid-chromatography-coupled mass spectrometry (LC–MS). As to conditions: 2 µM.

For data set [19] the following is noted: human gut metagenome, 24 h, 2 µM. This is another data set of the same source.
A short description of data set [20]: The drug is tested on Z-020 corresponding to rabbit gut metagenome with ENA study accession number: PRJEB37062 and ENA sample accession number: ERS12561819 for biotransformation under anaerobic condition. The drug concentrations were measured over 9 timepoints collected between 0 and 24 hours of incubation by liquid-chromatography-coupled mass spectrometry (LC–MS). As to conditions: 2 µM.
Note: call rule not given here.

Take `Cc1cc(C)cc(OCC2CNC(=O)O2)c1` (stereo not given) [METAXALONE]: the “Bacterial Biotransformation” value in data set [1] is given as “Compound metabolized”; in [2], “Compound NOT metabolized”; in data set [3], “Compound NOT metabolized”; in data set [4], “Compound NOT metabolized”; in data set [5], “Compound NOT metabolized”; in [6], “Compound metabolized”. Moreover, the “Bacterial Biotransformation” value in data set [7] is listed as “Compound metabolized”; in data set [8], “Compound metabolized”; in [9], “Compound NOT metabolized”; in data set [10], “Compound metabolized”; in [11], “Compound metabolized”; in [12], “Compound metabolized”. Further, the “Bacterial Biotransformation” value in data set [13] is recorded as “Compound NOT metabolized”; in data set [14], “Compound metabolized”; in data set [15], “Compound metabolized”; in data set [16], “Compound metabolized”; in data set [17], “Compound metabolized”; in [18], “Compound NOT metabolized”. In addition, the “Bacterial Biotransformation” value in data set [19] was “Compound metabolized”; in data set [20], “Compound NOT metabolized”.

With `COC(=O)C(c1ccccc1)C1CCCCN1` (stereo not given) [METHYLPHENIDATE], the “Bacterial Biotransformation” value in data set [1] is listed as “Compound NOT metabolized”; in [2], “Compound NOT metabolized”; in data set [3], “Compound NOT metabolized”; in data set [4] it was “Compound metabolized”; in [5], “Compound NOT metabolized”; in data set [6] it was “Compound NOT metabolized”. In addition, the “Bacterial Biotransformation” value in [7], in data set [8], in [9], in data set [10], in data set [11] and in [12] was “Compound NOT metabolized” throughout. Besides, the “Bacterial Biotransformation” value is listed as “Compound NOT metabolized” in [13]; “Compound NOT metabolized” in data set [14]; “Compound metabolized” in [15]; “Compound NOT metabolized” in data set [16]; “Compound NOT metabolized” in [17]; “Compound NOT metabolized” in [18]. For the same compound, the “Bacterial Biotransformation” value is listed as “Compound metabolized” in [19] and “Compound NOT metabolized” in data set [20].

With `CN1CCN2c3ccccc3Cc3ccccc3C2C1` (stereo not given) [MIANSERIN], the “Bacterial Biotransformation” value in data set [1] was “Compound NOT metabolized”; in data set [2], “Compound metabolized”; in data set [3] it was “Compound NOT metabolized”; in data set [4] it was “Compound metabolized”; in data set [5] it was “Compound NOT metabolized”; in [6] it was “Compound metabolized”. Also, the “Bacterial Biotransformation” value is given as “Compound NOT metabolized” in data set [7]; “Compound metabolized” in [8]; “Compound NOT metabolized” in data set [9]; “Compound NOT metabolized” in [10]; “Compound NOT metabolized” in data set [11]; “Compound metabolized” in data set [12]. The “Bacterial Biotransformation” value is on record as “Compound NOT metabolized” in data set [13]; “Compound NOT metabolized” in [14]; “Compound metabolized” in data set [15]; “Compound metabolized” in [16]; “Compound NOT metabolized” in [17]; “Compound NOT metabolized” in [18]. For the same compound, the “Bacterial Biotransformation” value in data set [19] and in [20] was “Compound NOT metabolized” in each case.

(Values after ChEMBL document CHEMBL5724914, “Linking interpersonal differences in gut microbiota composition and drug biotransformation activity” (2024).)
